Assay [1] concerns PKB Ser473 phosphorylation in Rat1-myr-HA-p110 alpha cells. The assay is described as follows: Reverse protein array assay, PKB Ser473 phosphorylation in Rat1-myr-p110 alpha cells. The format is cell-based. Particulars: 0.5 h, pAkt Ser473, 30 minutes compound incubation, read-out: p-PKB IC50. In a few lines:
(§1)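 After at least 20 h of culture, the p110 isoform-transfected Rat1 lines receive compound in an 8-step dilution series, keeping DMSO at 0.2%, for 30 minutes. Cells are then lysed and lysates arrayed on chips for fluorescence detection of Ser473-phosphorylated PKB.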

Assay [2] has as its system PKB Ser473 phosphorylation in Rat1-myr-HA-p110 delta cells. The assay is described as follows: Reverse protein array assay, PKB Ser473 phosphorylation in Rat1-myr-p110 delta cells. The format is cell-based. Conditions: read-out: p-PKB IC50. The gist of the method:
as §1

Assay [3] concerns S6 Ribosomal Protein phosphorylation Ser235/236 in TSC1 null mouse embryo fibroblast (MEF) cells. The assay is described as follows: Reverse protein array assay, S6 Ribosomal Protein phosphorylation Ser235/236 in TSC1 null MEF cells. The format is cell-based. Conditions: 1 h, pS6 ribosomal protein Ser235/236, 60 minutes incubation, read-out: p-S6 IC50. In a few lines:
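TSC1−/− MEFs, seeded and held ≥20 h at 37 °C/5% CO2, were exposed to 8-step serial compound dilutions (0.02% DMSO final; DMSO vehicle control) for 60 min at 37 °C. Cells were then lysed on ice for 10 min and lysates spotted onto reverse protein array chips.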

The next assay deals with T1, PI3K alpha (Homo sapiens, UniProt P42336).
T1 construct: p85(iSH2) fusion partner (see partner chain) (N); His tag (C); made in house; host or cells: baculovirus; Tn5 (Trichoplusia ni) or TiniPro insect cells
T1 sequence (P42336 with tags, fused parts or gaps limits assumed): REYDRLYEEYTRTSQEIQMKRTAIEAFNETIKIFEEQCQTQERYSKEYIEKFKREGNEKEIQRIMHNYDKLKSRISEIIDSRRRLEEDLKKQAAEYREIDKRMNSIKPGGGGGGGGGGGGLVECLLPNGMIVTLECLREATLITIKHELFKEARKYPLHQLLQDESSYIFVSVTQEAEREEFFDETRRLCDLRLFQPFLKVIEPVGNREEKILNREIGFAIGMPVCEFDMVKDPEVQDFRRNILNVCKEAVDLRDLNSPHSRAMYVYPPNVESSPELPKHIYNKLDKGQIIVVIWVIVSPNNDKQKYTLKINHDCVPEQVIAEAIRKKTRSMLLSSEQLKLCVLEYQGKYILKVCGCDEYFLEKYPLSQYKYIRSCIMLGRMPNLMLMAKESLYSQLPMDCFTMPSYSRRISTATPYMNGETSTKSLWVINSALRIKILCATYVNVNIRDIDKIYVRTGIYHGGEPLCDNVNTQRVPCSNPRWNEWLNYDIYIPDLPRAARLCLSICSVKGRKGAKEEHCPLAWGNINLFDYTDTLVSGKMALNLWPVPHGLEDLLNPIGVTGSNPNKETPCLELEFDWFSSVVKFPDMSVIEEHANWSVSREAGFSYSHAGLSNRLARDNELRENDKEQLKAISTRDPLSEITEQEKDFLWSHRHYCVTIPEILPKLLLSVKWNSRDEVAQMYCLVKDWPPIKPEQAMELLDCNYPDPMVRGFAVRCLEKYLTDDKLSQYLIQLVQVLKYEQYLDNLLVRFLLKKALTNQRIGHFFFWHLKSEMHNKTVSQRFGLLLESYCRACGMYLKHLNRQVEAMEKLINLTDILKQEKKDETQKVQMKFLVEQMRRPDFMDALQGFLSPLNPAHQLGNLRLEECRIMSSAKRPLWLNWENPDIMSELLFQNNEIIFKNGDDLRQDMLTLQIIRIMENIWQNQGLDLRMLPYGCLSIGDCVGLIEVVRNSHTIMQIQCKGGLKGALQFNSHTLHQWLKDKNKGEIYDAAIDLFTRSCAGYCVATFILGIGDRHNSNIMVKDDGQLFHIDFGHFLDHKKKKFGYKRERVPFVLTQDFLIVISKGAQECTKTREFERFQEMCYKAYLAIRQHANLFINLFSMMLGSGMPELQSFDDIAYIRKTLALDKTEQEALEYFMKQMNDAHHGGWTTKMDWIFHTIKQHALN
The assay is described as follows: PI3K alpha kinase assay (Kinase-Glo luminescence). The assay is classed as biochemical. In a few lines: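 Luminescent ATP-depletion assay (Kinase-Glo) with 10 nM PI3Kα and 10 μg/mL phosphatidylinositol as lipid substrate at 1 μM ATP. Incubation lasts 60 min at room temperature.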
In general terms: In Kinase-Glo more light means more ATP remaining.

On to `Cc1nn(C)cc1-n1c(=O)n(C)c2cnc3ccc(-c4cncc(N5CCC5)c4)cc3c21` [Example 179, 8-(5-Azetidin-1-yl-pyridin-3-yl)-1-(1,3-dimethyl-1H-pyrazol-4-yl)-3-methyl-1,3-dihydro-imidazo[4,5-c]quinolin-2-one], for which the IC50 came out at 18 nM in assay [1], 25 nM in assay [2], 10 nM in assay [3] and 39 nM at PI3K alpha.
The like results for `COCc1ccc(-c2ccc3ncc4c(c3c2)n(-c2cn(C)nc2Cl)c(=O)n4C)cn1` [Example 203, 1-(3-Chloro-1-methyl-1H-pyrazol-4-yl)-8-(6-methoxymethyl-pyridin-3-yl)-3-methyl-1,3-dihydro-imidazo[4,5-c]quinolin-2-one] were, in that order, 10 nM, 26 nM, 22 nM and 5 nM.
The like results for `Cc1cncc(-c2ccc3ncc4c(c3c2)n(-c2cn(C)nc2C)c(=O)n4C)c1` [Example 24, 1-(1,3-Dimethyl-1H-pyrazol-4-yl)-3-methyl-8-(5-methyl-pyridin-3-yl)-1,3-dihydro-imidazo[4,5-c]quinolin-2-one] were, in that order, 78 nM, 170 nM, 9 nM and 10 nM.
The like results for `Cc1nn(C(C)C)cc1-n1c(=O)n(C)c2cnc3ccc(-c4cnc(N)c(CO)c4)cc3c21` [Example 169.1, 8-(6-Amino-5-hydroxymethyl-pyridin-3-yl)-1-(1-isopropyl-3-methyl-1H-pyrazol-4-yl)-3-methyl-1,3-dihydro-imidazo[4,5-c]quinolin-2-one] were, in that order, 27 nM, 70 nM, 5.63 nM and 24 nM.
`Cc1nn(C)cc1-n1c(=O)n(C)c2cnc3ccc(-c4cnc(N)c(Cl)c4)cc3c21` [Example 148.2, 8-(6-Amino-5-chloro-pyridin-3-yl)-1-(1,3-dimethyl-1H-pyrazol-4-yl)-3-methyl-1,3-dihydro-imidazo[4,5-c]quinolin-2-one]: the IC50 was below 5 nM in assay [1], 12 nM in assay [2], 1 nM in assay [3] and 18 nM at PI3K alpha.
Consider `CCOc1cc(-c2ccc3ncc4c(c3c2)n(-c2cn(C)nc2C)c(=O)n4C)cnc1CC` [Example 187, 1-(1,3-Dimethyl-1H-pyrazol-4-yl)-8-(5-ethoxy-6-ethyl-pyridin-3-yl)-3-methyl-1,3-dihydro-imidazo[4,5-c]quinolin-2-one], for which the IC50 in assay [1] turned out to be 6 nM; in assay [2] it was 24 nM; in assay [3], 1.89 nM; at PI3K alpha, 15 nM.
The like results for `CCN(C)c1ccc(-c2ccc3ncc4c(c3c2)n(-c2cn(C)nc2C)c(=O)n4C)cn1` [Example 98.1, 1-(1,3-Dimethyl-1H-pyrazol-4-yl)-8-[6-(ethyl-methyl-amino)-pyridin-3-yl]-3-methyl-1,3-dihydro-imidazo[4,5-c]quinolin-2-one] were, in that order, below 5 nM, 42 nM, 3 nM and 34 nM.
The like results for `Cc1nn(C)cc1-n1c(=O)n(C)c2cnc3ccc(-c4ccc(N(C)C)nc4)cc3c21` [Example 4.5, 8-(6-Dimethylamino-pyridin-3-yl)-1-(1,3-dimethyl-1H-pyrazol-4-yl)-3-methyl-1,3-dihydro-imidazo[4,5-c]quinolin-2-one] were, in that order, 22 nM, 38 nM, 13 nM and 23 nM.
As to `CCOc1ccc(-c2ccc3ncc4c(c3c2)n(-c2cn(C(C)C)nc2C)c(=O)n4C)cn1` [Example 3.7, 8-(6-Ethoxy-pyridin-3-yl)-1-(1-isopropyl-3-methyl-1H-pyrazol-4-yl)-3-methyl-1,3-dihydro-imidazo[4,5-c]quinolin-2-one], the IC50 in assay [1] was found to be 43 nM; in assay [2] it was 186 nM; in assay [3], 30 nM; on PI3K alpha it was 61 nM.
For `CCn1cc(-n2c(=O)n(C)c3cnc4ccc(-c5cncc(N)c5)cc4c32)c(C)n1` [Example 45.2, 8-(5-Amino-pyridin-3-yl)-1-(1-ethyl-3-methyl-1H-pyrazol-4-yl)-3-methyl-1,3-dihydro-imidazo[4,5-c]quinolin-2-one], the IC50 in assay [1] came to 26 nM; in assay [2], 203 nM; in assay [3], 72 nM; on PI3K alpha, 74 nM.
As to `CNC(=O)c1cc(-c2ccc3ncc4c(c3c2)n(-c2cn(C)nc2C)c(=O)n4C)cnc1OC` [Example 125.1, 5-[1-(1,3-Dimethyl-1H-pyrazol-4-yl)-3-methyl-2-oxo-2,3-dihydro-1H-imidazo[4,5-c]quinolin-8-yl]-2-methoxy-N-methyl-nicotinamide], the IC50 worked out at 75 nM in assay [1], 91 nM in assay [2], 2 nM in assay [3] and 28 nM on PI3K alpha.
As to `Cc1nn(C)c(C)c1-n1c(=O)n(C)c2cnc3ccc(-c4cnc(N)c(Cl)c4)cc3c21` [Example 148.1, 8-(6-Amino-5-chloro-pyridin-3-yl)-3-methyl-1-(1,3,5-trimethyl-1H-pyrazol-4-yl)-1,3-dihydro-imidazo[4,5-c]quinolin-2-one], the IC50 in assay [1] was determined as 63 nM; in assay [2], 90 nM; in assay [3] it was 22 nM; at PI3K alpha, 26 nM.
The like results for `Cc1ncc(-c2ccc3ncc4c(c3c2)n(-c2cn(C)nc2C)c(=O)n4C)cc1NS(C)(=O)=O` [Example 76, N-{5-[1-(1,3-Dimethyl-1H-pyrazol-4-yl)-3-methyl-2-oxo-2,3-dihydro-1H-imidazo[4,5-c]quinolin-8-yl]-2-methyl-pyridin-3-yl}-methanesulfonamide] were, in that order, 180 nM, 390 nM, 200 nM and 6 nM.
For the compound `CCOc1ncc(-c2ccc3ncc4c(c3c2)n(-c2cn(C)nc2C)c(=O)n4C)cc1N(C)C(C)=O` [Example 63, N-{5-[1-(1,3-Dimethyl-1H-pyrazol-4-yl)-3-methyl-2-oxo-2,3-dihydro-1H-imidazo[4,5-c]quinolin-8-yl]-2-ethoxy-pyridin-3-yl}-N-methyl-acetamide], the IC50 in assay [1] was determined as 265 nM; in assay [2], 356 nM; in assay [3], 13.4 nM; at PI3K alpha, 92 nM.
Take `CNc1ncc(-c2ccc3ncc4c(c3c2)n(-c2c(C)nn(C)c2C)c(=O)n4C)cc1C(F)(F)F` [Example 144.1, 3-Methyl-8-(6-methylamino-5-trifluoromethyl-pyridin-3-yl)-1-(1,3,5-trimethyl-1H-pyrazol-4-yl)-1,3-dihydro-imidazo[4,5-c]quinolin-2-one]: the IC50 in assay [1] was 26 nM; in assay [2], 84 nM; in assay [3] it was 2 nM; at PI3K alpha, 36 nM.
The like results for `CNc1cncc(-c2ccc3ncc4c(c3c2)n(-c2cn(C(C)C)nc2C)c(=O)n4C)c1` [Example 180.2, 1-(1-Isopropyl-3-methyl-1H-pyrazol-4-yl)-3-methyl-8-(5-methylamino-pyridin-3-yl)-1,3-dihydro-imidazo[4,5-c]quinolin-2-one] were, in that order, below 5 nM, 24 nM, 17 nM and 22 nM.
The like results for `Cc1nn(C)cc1-n1c(=O)n(C)c2cnc3ccc(-c4cncc(N(C)C(C)C)c4)cc3c21` [Example 173, 1-(1,3-Dimethyl-1H-pyrazol-4-yl)-8-[5-(isopropyl-methyl-amino)-pyridin-3-yl]-3-methyl-1,3-dihydro-imidazo[4,5-c]quinolin-2-one] were, in that order, 16 nM, 50 nM, 2 nM and 23 nM.
Regarding `CCNc1cc(-c2ccc3ncc4c(c3c2)n(-c2cn(CC)nc2C)c(=O)n4C)cnc1C` [Example 87.3, 8-(5-Ethylamino-6-methyl-pyridin-3-yl)-1-(1-ethyl-3-methyl-1H-pyrazol-4-yl)-3-methyl-1,3-dihydro-imidazo[4,5-c]quinolin-2-one], the IC50 is below 5 nM in assay [1], 7 nM in assay [2], 6 nM in assay [3] and 9 nM at PI3K alpha.
`Cc1nn(C)cc1-n1c(=O)n(C)c2cnc3ccc(-c4cnc(CO)c(OC(CF)CF)c4)cc3c21` [Example 192, 1-(1,3-Dimethyl-1H-pyrazol-4-yl)-8-[5-(2-fluoro-1-fluoromethyl-ethoxy)-6-hydroxymethyl-pyridin-3-yl]-3-methyl-1,3-dihydro-imidazo[4,5-c]quinolin-2-one]: the IC50 in assay [1] is 12 nM; in assay [2], 72 nM; in assay [3] it was 5 nM; on PI3K alpha, below 3 nM.

A word on the IC50: it is the concentration that gives 50% inhibition.

These data come from patent US20140005163A1 (NOVARTIS AG, priority 2010, published 2014).
